Results published in BigSolDB 2.1.

COc1cc(Cl)nc(N)n1
solubility (mole fraction)
Details	in 1,4-dioxane	in DMF	in acetone	in acetonitrile	in chloroform	in ethanol	in ethyl acetate
273.15 K	–	0.0496	0.0076	0.00136	0.00237	0.00128	0.00547
278.15 K	–	0.0544	0.00947	0.00174	0.00306	0.00163	–
283.15 K	0.0229	0.0595	0.0117	0.00223	0.00389	0.00206	–
288.15 K	0.0264	0.0648	0.0143	0.00276	0.00492	0.00259	–
293.15 K	0.0316	0.0712	0.0174	0.00345	0.00612	0.00323	–
298.15 K	0.0367	0.0775	0.0211	0.00426	0.00758	0.00396	–
303.15 K	0.0422	0.0846	0.0255	0.00523	0.00924	0.00488	–
308.15 K	0.0493	0.0926	0.0302	0.00633	0.0114	0.00598	–
313.15 K	0.0569	0.101	0.0358	0.00773	0.0138	0.00733	–
318.15 K	0.0648	0.11	0.0422	0.00927	0.0166	0.00886	–
323.15 K	0.0746	0.12	0.0492	0.0111	0.0197	0.0106	–
